The record followed here is patent US12122766B2, “3-azabicyclo[3,1,1]heptane derivative and pharmaceutical composition including same” (LG CHEM, LTD., priority 2018, dated 2024).

The structures appear in SMILES notation. Some results are limits rather than exact numbers.

The target of the experiment is T1, Ketohexokinase (KHK) (Homo sapiens, UniProt P50053).
T1 construct: His tag; made in house; host or cells: E. coli
T1 sequence (P50053 1-298): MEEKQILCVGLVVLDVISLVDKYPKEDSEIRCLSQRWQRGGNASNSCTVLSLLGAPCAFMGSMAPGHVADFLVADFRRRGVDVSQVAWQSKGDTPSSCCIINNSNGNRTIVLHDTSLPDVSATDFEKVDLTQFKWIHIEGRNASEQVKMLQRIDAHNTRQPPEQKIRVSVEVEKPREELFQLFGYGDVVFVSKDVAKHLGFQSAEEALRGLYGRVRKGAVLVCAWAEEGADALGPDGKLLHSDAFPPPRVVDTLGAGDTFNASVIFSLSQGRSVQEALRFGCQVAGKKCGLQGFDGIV
Kind of experiment: Activity measurement of ketohexokinase inhibitor in vitro (Transcreener ADP2 TR-FRET Red Assay). The format is biochemical. Particulars: purified His-tagged KHK expressed in E. coli; 30 min preincubation with inhibitor, 15 min reaction with ATP and fructose; ADP by TR-FRET (665/615 ratio). The protocol: Ketohexokinase (KHK) was expressed in E. coli, and was purified using His tag. In order to measure the activity of the purified KHK, Transcreener ADP2 TR-FRET Red Assay kit of BellBrook Labs was used. A method of measuring the amount of ADP produced using TR-FRET after reacting a solution including appropriate concentrations of a KHK protein, ATP, and fructose for 15 minutes, was used. In order to observe the activity of a ketohexokinase (KHK) inhibitor, ketohexokinase (KHK) and an inhibitor with an appropriate concentration were reacted first for 30 minutes, and then, reacted with a solution include a substrate of ketohexokinase (KHK) for 15 minutes. Then, reaction for TR-FRET was conducted for 1 hour, and fluorescence was measured using Envision apparatus of PerkinElmer Co. The predetermined value of Envision apparatus was determined according to the optimization process of TR-FRET published by BellBrook Lab. The resultant value for each concentration of the ketohexokinase (KHK) inhibitor is determined by a ratio of 665 nm wavelength and 615 nm wavelength. IC50 is analyzed by measuring the 665/615 ratio value with respect to the concentration of each inhibitor and using a statistics software (Prizm). IC50 was represented by the concentration of the inhibitor, showing 50% of the maximum inhibition activity by the inhibitor.
For `C[C@H]1CCN1c1nc(N2C[C@H]3C[C@@H](C2)[C@H]3CC(=O)O)cc(C(F)(F)F)n1` [Example 1, 2-((1R,5S,6R)-3-(2-((S)-2-methylazetidine-1-yl)-6-(trifluoromethyl)pyrimidine-4-yl)-3-azabicyclo[3,1,1]heptane-6-yl)acetic Acid], the half-inhibitory concentration (IC50) was at least 1 µM.

For the compound `C[C@H]1CCN1c1nc(N2C[C@H]3C[C@@H](C2)[C@@H]3CC(=O)O)cc(C(F)(F)F)n1` [Example 2, 2-((1R,5S,6S)-3-(2-((S)-2-methylazetidine-1-yl)-6-(trifluoromethyl)pyrimidine-4-yl)-3-azabicyclo[3,1,1]heptane-6-yl)acetic Acid], the IC50 is at most 21.2 µM.

As to `C[C@H]1CCN1c1nc(N2C[C@H]3C[C@@H](C2)[C@H]3CC(=O)O)cc(C(F)(F)F)c1C#N` [Example 3, 2-((1R,5S,6R)-3-(5-cyano-6-((S)-2-methylazetidine-1-yl)-4-(trifluoromethyl)pyridine-2-yl)-3-azabicyclo[3,1,1]heptane-6-yl)acetic Acid], the IC50 is at least 1 µM.

Consider `C[C@H]1CCN1c1nc(N2C[C@H]3C[C@@H](C2)[C@@H]3CC(=O)O)cc(C(F)(F)F)c1C#N` [Example 4, 2-((1R,5S,6S)-3-(5-cyano-6-((S)-2-methylazetidine-1-yl)-4-(trifluoromethyl)pyridine-2-yl)-3-azabicyclo[3,1,1]heptane-6-yl)acetic Acid], for which the half-maximal inhibitory concentration (IC50) was at most 21.2 µM.

For `N#Cc1c(C(F)(F)F)cc(N2C[C@H]3C[C@@H](C2)[C@@H]3CC(=O)O)nc1N1CCCC1` [Example 5, 2-((1R,5S,6R)-3-(5-cyano-6-(pyrrolidine-1-yl)-4-(trifluoromethyl)pyridine-2-yl)-3-azabicyclo[3,1,1]heptane-6-yl)acetic Acid], the half-inhibitory concentration (IC50) was at most 21.2 µM.
